Target: T1, CDK8 (CDK8/CycC) (Homo sapiens, UniProt P49336)
T1 construct: purchased Invitrogen PV4402
Assay: FRET based Lanthascreen binding competition assay
Conditions: 5 nM CDK8/CycC, 10 nM Alexa647-Tracer, 1% DMSO, 60 min at RT; read-out: IC50 CDK8 binding
Method in brief: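 CDK8 co-expressed with CycC and labelled through biotinylated anti-His antibody and streptavidin-Eu was preincubated with compound for 20 min at RT. An Alexa647 ATP-competitive probe was then added for 60 min at RT in the dark. Probe displacement was read as loss of TR-FRET (excitation 340 nm, emission 650 nm).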

T1 sequence (P49336 whole entry): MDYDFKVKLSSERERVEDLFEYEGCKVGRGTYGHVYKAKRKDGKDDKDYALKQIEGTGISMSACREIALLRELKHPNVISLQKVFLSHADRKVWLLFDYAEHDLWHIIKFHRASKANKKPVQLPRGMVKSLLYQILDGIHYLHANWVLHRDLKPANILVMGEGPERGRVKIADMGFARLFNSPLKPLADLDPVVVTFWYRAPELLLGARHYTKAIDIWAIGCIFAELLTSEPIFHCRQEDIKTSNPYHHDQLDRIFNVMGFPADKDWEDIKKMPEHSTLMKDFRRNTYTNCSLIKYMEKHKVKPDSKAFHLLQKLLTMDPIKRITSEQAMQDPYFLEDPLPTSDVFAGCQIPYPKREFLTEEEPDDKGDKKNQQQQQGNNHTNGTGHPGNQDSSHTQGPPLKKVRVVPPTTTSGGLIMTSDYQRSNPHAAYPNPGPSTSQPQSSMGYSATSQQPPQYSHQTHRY
T1 sequence (P24863 whole entry partner): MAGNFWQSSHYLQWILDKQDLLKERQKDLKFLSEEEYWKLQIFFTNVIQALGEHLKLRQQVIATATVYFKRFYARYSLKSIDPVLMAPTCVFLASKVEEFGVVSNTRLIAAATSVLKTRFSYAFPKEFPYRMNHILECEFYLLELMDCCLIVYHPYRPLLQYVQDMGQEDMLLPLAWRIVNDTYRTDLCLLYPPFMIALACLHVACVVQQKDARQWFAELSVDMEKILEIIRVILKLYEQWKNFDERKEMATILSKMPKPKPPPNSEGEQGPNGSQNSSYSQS

| SMILES | IC50 [nM] |
| --- | --- |
| COC1CN(C(=O)c2ccc3cncc(-c4ccc(-c5cnn(C(C)C)c5)cc4)c3n2)C1 [Compound 153, (8-(4-(1-isopropyl-1H-pyrazol-4-yl)phenyl)-1,6-naphthyridin-2-yl)(3-methoxyazetidin-1-yl)methanone] | < 10 |
| CNC(=O)c1ccc2c(O)ncc(-c3ccc4c(c3)CS(=O)(=O)N4)c2n1 [Compound 63, 8-(2,2-dioxido-1,3-dihydrobenzo[c]isothiazol-5-yl)-5-hydroxy-N-methyl-1,6-naphthyridine-2-carboxamide] | 101 to 500 |
| COC1CN(C(=O)c2ccc3c(N)ncc(-c4ccc5c(c4)N(C)C(=O)C5)c3c2)C1 [Compound 173, 6-[1-Amino-6-(3-methoxy-azetidine-1-carbonyl)-isoquinolin-4-yl]-1-methyl-1,3-dihydro-indol-2-one] | 10 to 100 |
| C[C@H](NC(=O)c1ccc2cncc(Br)c2n1)c1ccccc1 [Compound 70, (S)-8-bromo-N-(1-phenylethyl)-1,6-naphthyridine-2-carboxamide] | 101 to 500 |
| CC(C)(O)Cn1cc(-c2ccc(-c3cncc4ccc(C(N)=O)cc34)cc2)cn1 [Compound 97, 4-(4-(1-(2-hydroxy-2-methylpropyl)-1H-pyrazol-4-yl)phenyl)isoquinoline-6-carboxamide] | < 10 |
| CC1CCC(=O)N1c1ccc2cncc(-c3ccc(-c4cnn(C)c4)cc3)c2c1 (centres unmarked) [Compound 114, 5-Methyl-1-{4-[4-(1-methyl-1H-pyrazol-4-yl)-phenyl]-isoquinolin-6-yl}-pyrrolidin-2-one] | 10 to 100 |
| Cn1cc(-c2ccc(-c3cncc4ccc(C(=O)N5CCC(F)(F)CC5)nc34)cc2)cn1 [Compound 35, (4,4-difluoropiperidin-1-yl)(8-(4-(1-methyl-1H-pyrazol-4-yl)phenyl)-1,6-naphthyridin-2-yl)methanone] | < 10 |
| Cn1cc(-c2ccc(-c3cncc4ccc(-c5nn[nH]n5)nc34)cc2)cn1 [Compound 42, 8-(4-(1-methyl-1H-pyrazol-4-yl)phenyl)-2-(2H-tetrazol-5-yl)-1,6-naphthyridine] | 10 to 100 |
| Cc1nc(-c2ccc(-c3cncc4ccc(C(=O)N5CC(F)(F)C5)cc34)cc2)cn1C [Compound 175, (3,3-Difluoro-azetidin-1-yl)-{4-[4-(1,2-dimethyl-1H-imidazol-4-yl)-phenyl]-isoquinolin-6-yl}-methanone] | 10 to 100 |
| COC1CN(C(=O)c2ccc3c(N)ncc(-c4ccc5c(c4)CC(=O)N5C)c3c2)C1 [Compound 177, 5-[1-Amino-6-(3-methoxy-azetidine-1-carbonyl)-isoquinolin-4-yl]-1-methyl-1,3-dihydro-indol-2-one] | 10 to 100 |
| CN1C(=O)Cc2ccc(-c3cncc4ccc(C(=O)N5CC(F)(F)C5)cc34)cc21 [Compound 163, 6-[6-(3,3-Difluoro-azetidine-1-carbonyl)-isoquinolin-4-yl]-1-methyl-1,3-dihydro-indol-2-one] | 10 to 100 |
| COCCNc1ccc2cncc(-c3ccc(-c4cnn(C)c4)cc3)c2c1 [Compound 105, (2-Methoxy-ethyl)-{4-[4-(1-methyl-1H-pyrazol-4-yl)-phenyl]-isoquinolin-6-yl}-amine] | < 10 |
| Cc1cc(-c2cnn(C)c2)ccc1-c1cncc2ccc(C(N)=O)nc12 [Compound 19, 8-(2-methyl-4-(1-methyl-1H-pyrazol-4-yl)phenyl)-1,6-naphthyridine-2-carboxamide] | < 10 |
| CN(C)C(=O)c1ccc2c(N)ncc(-c3ccc4c(c3)CS(=O)(=O)N4)c2n1 [Compound 59, 5-amino-8-(2,2-dioxido-1,3-dihydrobenzo[c]isothiazol-5-yl)-N,N-dimethyl-1,6-naphthyridine-2-carboxamide] | 101 to 500 |
| Nc1ncc(-c2ccc3c(c2)CS(=O)(=O)N3)c2cc(C(=O)N3CCC3)ccc12 [Compound 194, (1-amino-4-(2,2-dioxido-1,3-dihydrobenzo[c]isothiazol-5-yl)isoquinolin-6-yl)(azetidin-1-yl)methanone] | < 10 |
| Cc1cncc2ccc(C(=O)N3CCC[C@H]3c3ccc(Cl)cc3)nc12 [Compound 83, (S)-(2-(4-chlorophenyl)pyrrolidin-1-yl)(8-methyl-1,6-naphthyridin-2-yl)methanone] | < 10 |
| CN1c2ccc(-c3cncc4ccccc34)cc2CS1(=O)=O [Compound 100, 5-(isoquinolin-4-yl)-1-methyl-1,3-dihydrobenzo[c]isothiazole 2,2-dioxide] | < 10 |
| Cn1cc(-c2ccc(-c3cncc4ccc(C(=O)N5CCNCC5)cc34)cc2)cn1 [Compound 102, (4-(4-(1-methyl-1H-pyrazol-4-yl)phenyl)isoquinolin-6-yl)(piperazin-1-yl)methanone] | < 10 |
| Cn1cc(-c2ccc(-c3cncc4ccc(C(=O)N5CC(C)(F)C5)cc34)cc2)cn1 [Compound 186, (3-fluoro-3-methylazetidin-1-yl)(4-(4-(1-methyl-1H-pyrazol-4-yl)phenyl)isoquinolin-6-yl)methanone] | 10 to 100 |

| SMILES | IC50 [nM] |
| --- | --- |
| Cn1cc(-c2ccc(-c3cncc4ccc(NS(=O)(=O)c5ccccc5)cc34)cc2)cn1 [Compound 152, N-{4-[4-(1-Methyl-1H-pyrazol-4-yl)-phenyl]-isoquinolin-6-yl}-benzenesulfonamide] | < 10 |
| CN(C)C(=O)c1ccc2cncc(-c3ccc4c(c3)CS(=O)(=O)N4)c2n1 [Compound 46, 8-(2,2-Dioxo-2,3-dihydro-1H-benzo[c]isothiazol-5-yl)-[1,6]naphthyridine-2-carboxylic acid dimethylamide] | 10 to 100 |
| Cn1cc(-c2ccc(-c3cncc4ccc(C(N)=O)nc34)c(F)c2)cn1 [Compound 14, 8-(2-fluoro-4-(1-methyl-1H-pyrazol-4-yl)phenyl)-1,6-naphthyridine-2-carboxamide] | < 10 |
| Cn1cc(-c2ccc(-c3cncc4ccc(S(C)(=N)=O)cc34)cc2)cn1 (centres unmarked) [Compound 190, 6-[imino(methane)sulfinyl]-4-[4-(1-methyl-1H-pyrazol-4-yl)phenyl]isoquinoline] | 10 to 100 |
| COCCn1cc(-c2ccc(-c3cncc4ccc(NS(C)(=O)=O)cc34)cc2)cn1 [Compound 166, N-(4-(4-(1-(2-methoxyethyl)-1H-pyrazol-4-yl)phenyl)isoquinolin-6-yl)methanesulfonamide] | < 10 |
| Cn1cc(-c2ccc(-c3cncc4ccc(N5C(=O)CCC5=O)cc34)cc2)cn1 [Compound 126, 1-{4-[4-(1-Methyl-1H-pyrazol-4-yl)-phenyl]-isoquinolin-6-yl}-pyrrolidine-2,5-dione] | 101 to 500 |
| Cn1cc(-c2ccc(-c3cncc4ccc(C(=O)N5CCC5)cc34)cc2)cn1 [Compound 181, azetidin-1-yl(4-(4-(1-methyl-1H-pyrazol-4-yl)phenyl)isoquinolin-6-yl)methanone] | < 10 |
| CN1C(=O)Cc2cc(-c3cnc(N)c4ccc(C(=O)N5CC(F)(F)C5)cc34)ccc21 [Compound 171, 5-[1-Amino-6-(3,3-difluoro-azetidine-1-carbonyl)-isoquinolin-4-yl]-1-methyl-1,3-dihydro-indol-2-one] | 10 to 100 |
| COC1CN(C(=O)c2ccc3c(N)ncc(-c4ccc(-c5cnn(C(C)C)c5)cc4)c3n2)C1 [Compound 161, (5-amino-8-(4-(1-isopropyl-1H-pyrazol-4-yl)phenyl)-1,6-naphthyridin-2-yl)(3-methoxyazetidin-1-yl)methanone] | 10 to 100 |
| COCCN(c1ccc2cncc(-c3ccc(-c4cnn(C)c4)cc3)c2c1)S(C)(=O)=O [Compound 167, N-(2-methoxyethyl)-N-(4-(4-(1-methyl-1H-pyrazol-4-yl)phenyl)isoquinolin-6-yl)methanesulfonamide] | 101 to 500 |
| CN1c2ccc(-c3cncc4ccc(C(=O)N5CCNCC5)nc34)cc2CS1(=O)=O [Compound 18, [8-(1-Methyl-2,2-dioxo-2,3-dihydro-1H-benzo[c]isothiazol-5-yl)-[1,6]naphthyridin-2-yl]-piperazin-1-yl-methanone] | < 10 |
| O=C(c1ccc2cncc(Br)c2n1)N1CCC[C@H]1c1ccc(C(F)(F)F)cc1 [Compound 91, (S)-(8-bromo-1,6-naphthyridin-2-yl)(2-(4-(trifluoromethyl)phenyl)pyrrolidin-1-yl)methanone] | 10 to 100 |
| Cn1cc(-c2ccc(-c3cncc4ccc(C(=O)N5CC(C)(F)C5)nc34)cc2)cn1 [Compound 180, (3-fluoro-3-methylazetidin-1-yl)(8-(4-(1-methyl-1H-pyrazol-4-yl)phenyl)-1,6-naphthyridin-2-yl)methanone] | < 10 |
| COC1CN(C(=O)c2ccc3cncc(-c4ccc5c(c4)CC(=O)N5C)c3c2)C1 [Compound 159, 5-[6-(3-Methoxy-azetidine-1-carbonyl)-isoquinolin-4-yl]-1-methyl-1,3-dihydro-indol-2-one] | 10 to 100 |
| O=C(c1ccc2cncc(Br)c2n1)N1CCC[C@H]1c1ccc(F)cc1 [Compound 90, (S)-(8-bromo-1,6-naphthyridin-2-yl)(2-(4-fluorophenyl)pyrrolidin-1-yl)methanone] | 10 to 100 |
| COC1CN(C(=O)c2ccc3cncc(-c4ccc5c(c4)N(C)C(=O)C5)c3c2)C1 [Compound 165, 6-[6-(3-Methoxy-azetidine-1-carbonyl)-isoquinolin-4-yl]-1-methyl-1,3-dihydro-indol-2-one] | < 10 |
| O=C1Cc2ccc(-c3cncc4ccc(C(=O)N5CCC5)cc34)cc2N1 [Compound 145, 6-(6-(azetidine-1-carbonyl)isoquinolin-4-yl)indolin-2-one] | < 10 |
| COC1CN(C(=O)c2ccc3c(N)ncc(-c4ccc(-c5ccn(C)n5)cc4)c3n2)C1 [Compound 160, (5-amino-8-(4-(1-methyl-1H-pyrazol-3-yl)phenyl)-1,6-naphthyridin-2-yl)(3-methoxyazetidin-1-yl)methanone] | 101 to 500 |
| Cn1cc(-c2ccc(-c3cncc4ccc(C(=O)N5CCC(F)(F)C5)cc34)cc2)cn1 [Compound 195, (3,3-difluoropyrrolidin-1-yl)(4-(4-(1-methyl-1H-pyrazol-4-yl)phenyl)isoquinolin-6-yl)methanone] | 10 to 100 |
